Test results reported in paper PMC3188286 (Journal of Medicinal Chemistry, 2011).

Legend:
T. brucei TryR [1] = target: T1, T. brucei TryR (Trypanosoma brucei brucei, UniProt P39051); assay: TryR enzyme assay; type: biochemical, Trypanosoma brucei brucei strain S427; conditions: for improvement in TryR potency with respect to ester 1c: vs 1c IC50 9.4 μM; for fold less active than 9a against TryR: vs 9a; for ligand efficiency: from T. brucei TryR IC50
T. brucei TryR [2] = target: T1, T. brucei TryR; assay: Mode of inhibition studies; type: biochemical; conditions: for mode of inhibition: with respect to trypanothione disulfide
[3] = test system: bloodstream form T. brucei brucei; assay: Resazurin fluorescence-based cell viability assay, T. brucei; parameters: species or system Trypanosoma brucei brucei
[4] = Resazurin viability counter-screen, MRC5 cells; type: cell-based; conditions: human, MRC-5 cells

T1 sequence (P39051 whole entry): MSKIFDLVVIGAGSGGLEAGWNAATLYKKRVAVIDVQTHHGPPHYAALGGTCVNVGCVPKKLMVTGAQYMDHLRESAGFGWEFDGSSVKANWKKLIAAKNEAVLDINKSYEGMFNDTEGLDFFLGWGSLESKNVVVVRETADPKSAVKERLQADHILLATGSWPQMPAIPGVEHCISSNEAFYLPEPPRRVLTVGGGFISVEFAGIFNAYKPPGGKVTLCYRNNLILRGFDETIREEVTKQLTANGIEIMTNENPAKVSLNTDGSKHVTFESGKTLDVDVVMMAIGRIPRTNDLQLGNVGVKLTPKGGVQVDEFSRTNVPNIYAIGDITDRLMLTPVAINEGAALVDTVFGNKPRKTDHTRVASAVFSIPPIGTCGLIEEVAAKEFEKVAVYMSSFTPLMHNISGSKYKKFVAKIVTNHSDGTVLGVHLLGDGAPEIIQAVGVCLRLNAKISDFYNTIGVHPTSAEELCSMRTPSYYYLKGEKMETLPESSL

SMILES: COC(=O)CN1C(C)=Nc2ccc(Br)cc2C1c1ccccc1Cl (stereo not shown) [1d]
- TryR IC50 (T. brucei TryR [1]; recombinant T. brucei TryR, mean of at least two replicates): inactive

SMILES: CC1=Nc2ccc(Cl)cc2C(c2ccccc2)N1CCNC(=O)c1ccco1 (stereo not shown) [11e]
- improvement in TryR potency with respect to ester 1c (T. brucei TryR [1]): 11 fold
- mode of inhibition (T. brucei TryR [2]): mixed mode of inhibition

SMILES: CC1=Nc2ccc(Cl)cc2C(c2ccccc2)N1Cc1cccc(N(C)C)c1 (stereo not shown) [6g]
- improvement in TryR potency with respect to ester 1c (T. brucei TryR [1]): 10 fold

SMILES: CC1=Nc2ccc(Cl)cc2C(c2ccccc2)N1Cc1ccccc1 (racemic) [6a, (R/S)-3-Benzyl-6-chloro-2-methyl-4-phenyl-3,4-dihydroquinazoline]
- improvement in TryR potency with respect to ester 1c (T. brucei TryR [1]): 10 fold

SMILES: COC(=O)CN1C(C)=Nc2ccc(C)cc2C1c1ccccc1 (stereo not shown) [1b]
- difference in activity between T. cruzi and T. brucei TryR (T. brucei TryR [1]): < 3 fold

SMILES: CC1=Nc2ccc(-c3ccccc3)cc2C(c2ccccc2)N1CCN1CCCCC1 (racemic) [16a, (R/S)-2-Methyl-4,6-diphenyl-3-(2-(piperidin-1-yl)ethyl)-3,4-dihydroquinazoline]
- fold more potent against T. brucei cells than against TryR [3]: 10 fold

SMILES: CC1=Nc2ccc(Br)cc2C(c2ccccc2)N1CCN1CCCCC1 (stereo not shown) [15c, 6-bromo-2-methyl-4-phenyl-3-(2-(piperidin-1-yl)ethyl)-3,4-dihydroquinazoline]
- fold more potent against TryR than C6-phenyl analogue 16a (T. brucei TryR [1]): 10 fold

SMILES: CC1=Nc2ccc(Cl)cc2C(C2CCCCC2)N1CCN1CCCCC1 (stereo not shown) [29f]
- fold less active than 9a against TryR (T. brucei TryR [1]): 15 fold

SMILES: COC(=O)CN1C(C)=Nc2ccc(Br)cc2C1c1ccccc1 (stereo not shown) [1a]
- reduction in potency between biochemical (TryR IC50) and cell assay (T. brucei EC50) [3]: > 5 fold
- difference in activity between T. cruzi and T. brucei TryR (T. brucei TryR [1]): < 3 fold
- Ki (T. brucei TryR [2]): 920 ± 60 nM
- mode of inhibition (T. brucei TryR [2]): linear competitive inhibitor
- EC50 [4]: > 50000 nM

SMILES: CC1=Nc2ccc(Cl)cc2C(c2ccccc2)N1CCN1CCN(C(=O)CN(C)C)CC1 (stereo not shown) [13h]
- mode of inhibition (T. brucei TryR [2]): mixed mode of inhibition

SMILES: CC1=Nc2ccc(-c3ccco3)cc2C(c2ccccc2)N1CCN1CCCCC1 (stereo not shown) [16c]
- fold more potent against TryR than other C6-aryls (16a,b,e,f) (T. brucei TryR [1]): 5- to 10 fold

SMILES: CC1=Nc2ccc(Cl)cc2C(c2ccc(C)cc2)N1CCCN(C)C (stereo not shown) [29a, 3-(6-Chloro-2-methyl-4-p-tolylquinazolin-3(4H)-yl)-N,N-dimethylpropan-1-amine]
- ligand efficiency (T. brucei TryR [1]): > 0.3 kcal mol^–1 per non-H atom
- improvement in TryR potency cf. 9e (T. brucei TryR [1]; vs 9e IC50 1.0 μM): 4 fold
- TryR Ki′ (T. brucei TryR [2]; mixed inhibition, enzyme–T[S]2 complex): 1460 nM
- mode of inhibition (T. brucei TryR [2]): linear mixed

SMILES: CC1=Nc2ccc(Cl)cc2C(c2ccccc2)N1CCN1CCN(C)CC1 (stereo not shown) [9c]
- ligand efficiency (T. brucei TryR [1]): 0.31 kcal mol^–1 per non-H atom
- improvement in TryR potency with respect to ester 1c (T. brucei TryR [1]): 10 fold

SMILES: CC1=Nc2ccc(Cl)cc2C(c2ccccc2)N1CCN1CCCCC1 (racemic) [9a, (R/S)-6-Chloro-2-methyl-4-phenyl-3-(2-(piperidin-1-yl)ethyl)-3,4-dihydroquinazoline]
- selectivity (MRC5 EC50/T. brucei EC50) ([3]; ratio, fold): 11

SMILES: N=C(N)c1ccc(OCCCCCOc2ccc(C(=N)N)cc2)cc1 [Pentamidine, pentamidine, reference compound]
- EC50 ([3]; Trypanosoma brucei, read-out: T. brucei EC50 (positive control)): 5 nM

SMILES: CCN1C(C)=Nc2ccc(Cl)cc2C1c1ccccc1 (stereo not shown) [6k]
- ligand efficiency (T. brucei TryR [1]): > 0.3 kcal mol^–1 per non-H atom

SMILES: CC1=Nc2ccc(-c3ccsc3)cc2C(c2ccccc2)N1CCN1CCCCC1 (stereo not shown) [16d]
- fold more potent against TryR than other C6-aryls (16a,b,e,f) (T. brucei TryR [1]): 5- to 10 fold

SMILES: CC1=Nc2ccc(Cl)cc2C(c2ccccc2)N1CCN1CCN(C(=O)c2ccco2)CC1 (stereo not shown) [13e]
- ligand efficiency (T. brucei TryR [1]): 0.27 kcal mol^–1 per non-H atom
- improvement in TryR potency with respect to ester 1c (T. brucei TryR [1]): 22 fold

SMILES: COc1cccc(C2c3cc(Cl)ccc3N=C(C)N2CCN2CCCCC2)c1 (stereo not shown) [29d]
- fold less active than 9a against TryR (T. brucei TryR [1]): 15 fold

SMILES: CC1=Nc2ccc(Cl)cc2C(c2ccccc2)N1Cc1ccccc1F (stereo not shown) [6d]
- improvement in TryR potency with respect to ester 1c (T. brucei TryR [1]): 10 fold

SMILES: CC1=Nc2ccccc2C(c2ccccc2)N1CCN1CCCCC1 (stereo not shown) [15b]
- fold less potent against T. brucei than C6-halogen analogues 9a, 15c, 15d [3]: ~10 fold
